3 h FOB score data for 25 substances are collected here from the OligoGym collection.

HELM strings list units from the 5' end as sugar, base in round brackets, then linkage (d deoxyribose, r ribose, m 2'-O-methyl, p phosphodiester). Strings are as the collection lists them; they lack the last nucleoside at the 3' end of the tested compound. [moe] = 2'-O-(2-methoxyethyl) (MOE); [sp] = phosphorothioate linkage; [m5C] = 5-methylcytosine

The data set addresses GFAP. Nature of the data set: mouse, dose not given. Particulars: ASO.
Take “RNA1{[moe](T)[sp].[moe](G)p.[moe](T)p.[moe](G)p.[moe](T)p.[moe](A)p.d(T)[sp].d(T)[sp].d(A)[sp].d(G)[sp].d(G)[sp].d(A)[sp].d(T)[sp].d([m5C])[sp].d([m5C])[sp].d([m5C])[sp].[moe](A)p.[moe](T)[sp].[moe]([m5C])}$$$$ (last 3' nucleoside missing)”: the 3 h FOB score was 3 score 0-7.

Turning to “RNA1{[moe](T)[sp].[moe](G)p.[moe](T)p.[moe](G)p.[moe](T)p.d(A)[sp].d(T)[sp].d(T)[sp].d(A)[sp].d(G)[sp].d(G)[sp].d(A)[sp].d(T)[sp].d([m5C])[sp].d([m5C])[sp].[moe]([m5C])p.[moe](A)p.[moe](T)[sp].[moe]([m5C])}$$$$ (last 3' nucleoside missing)”, the 3 h FOB score stood at 3 score 0-7.

Regarding “RNA1{[moe](T)[sp].[moe](G)p.[moe](T)p.[moe](G)p.[moe]([m5C])[sp].d(T)[sp].d(T)[sp].d(T)[sp].d(A)[sp].d(G)[sp].d(T)[sp].d(G)[sp].d(A)[sp].d([m5C])[sp].d([m5C])[sp].[moe](T)p.[moe](G)p.[moe](T)[sp].[moe](G)}$$$$ (last 3' nucleoside missing)”, the 3 h FOB score was 5 score 0-7.

“RNA1{[moe](T)[sp].[moe](G)p.[moe](T)p.[moe](G)p.d(T)[sp].d(A)[sp].d(T)[sp].d(T)[sp].d(A)[sp].d(G)[sp].d(G)[sp].d(A)[sp].d(T)[sp].d([m5C])[sp].[moe]([m5C])p.[moe]([m5C])p.[moe](A)p.[moe](T)[sp].[moe]([m5C])}$$$$ (last 3' nucleoside missing)” came in with a 3 h FOB score of 3 score 0-7.

Regarding “RNA1{[moe](T)[sp].[moe](G)p.[moe](T)p.[moe]([m5C])p.[moe](T)[sp].d(T)[sp].d(T)[sp].d(A)[sp].d(T)[sp].d(T)[sp].d(T)[sp].d(T)[sp].d(T)[sp].[moe]([m5C])p.[moe]([m5C])p.[moe](T)[sp].[moe]([m5C])}$$$$ (last 3' nucleoside missing)”, the 3 h FOB score came out at 1 score 0-7.

With “RNA1{[moe](T)[sp].[moe](G)p.[moe](T)p.[moe]([m5C])p.[moe](T)[sp].d(T)[sp].d(T)[sp].d(A)[sp].d(T)[sp].d(T)[sp].d(T)[sp].d(T)[sp].d(T)[sp].d([m5C])[sp].d([m5C])[sp].[moe](T)p.[moe]([m5C])p.[moe](A)[sp].[moe](G)}$$$$ (last 3' nucleoside missing)”, the 3 h FOB score was 2 score 0-7.

Take “RNA1{[moe](T)[sp].[moe](G)p.[moe](T)p.[moe]([m5C])p.[moe](T)p.[moe](T)p.d(T)[sp].d(A)[sp].d(T)[sp].d(T)[sp].d(T)[sp].d(T)[sp].d(T)[sp].d([m5C])[sp].d([m5C])[sp].d(T)[sp].[moe]([m5C])p.[moe](A)[sp].[moe](G)}$$$$ (last 3' nucleoside missing)”: the 3 h FOB score was 1 score 0-7.

On to “RNA1{[moe](T)[sp].[moe](G)p.[moe](T)p.[moe]([m5C])p.d(T)[sp].d(T)[sp].d(T)[sp].d(A)[sp].d(T)[sp].d(T)[sp].d(T)[sp].d(T)[sp].d(T)[sp].d([m5C])[sp].[moe]([m5C])p.[moe](T)p.[moe]([m5C])p.[moe](A)[sp].[moe](G)}$$$$ (last 3' nucleoside missing)”, for which the 3 h FOB score amounted to 2 score 0-7.

“RNA1{[moe](T)[sp].[moe](G)p.[moe]([m5C])p.[moe](T)p.[moe](T)[sp].d(T)[sp].d(T)[sp].d(G)[sp].d([m5C])[sp].d([m5C])[sp].d([m5C])[sp].d([m5C])[sp].d([m5C])[sp].d(T)[sp].d([m5C])[sp].[moe](G)p.[moe](A)p.[moe](A)[sp].[moe](T)}$$$$ (last 3' nucleoside missing)” displayed a 3 h FOB score of 4 score 0-7.

“RNA1{[moe](T)[sp].[moe](G)p.[moe]([m5C])p.[moe]([m5C])p.[moe](A)[sp].d(T)[sp].d(T)[sp].d(T)[sp].d(A)[sp].d(T)[sp].d([m5C])[sp].d(T)[sp].d(G)[sp].[moe](T)p.[moe](G)p.[moe]([m5C])[sp].[moe](T)}$$$$ (last 3' nucleoside missing)”: the 3 h FOB score was 3 score 0-7.

Substance “RNA1{[moe](T)[sp].[moe](G)p.[moe]([m5C])p.[moe]([m5C])p.[moe](A)p.[moe](T)p.d(T)[sp].d(T)[sp].d(A)[sp].d(T)[sp].d([m5C])[sp].d(T)[sp].d(G)[sp].d(T)[sp].d(G)[sp].d([m5C])[sp].[moe](T)p.[moe](T)[sp].[moe](T)}$$$$ (last 3' nucleoside missing)” returned a 3 h FOB score of 2 score 0-7.

The substance “RNA1{[moe](T)[sp].[moe](G)p.[moe]([m5C])p.[moe]([m5C])p.[moe](A)p.d(T)[sp].d(T)[sp].d(T)[sp].d(A)[sp].d(T)[sp].d([m5C])[sp].d(T)[sp].d(G)[sp].d(T)[sp].d(G)[sp].[moe]([m5C])p.[moe](T)p.[moe](T)[sp].[moe](T)}$$$$ (last 3' nucleoside missing)” registered a 3 h FOB score of 1 score 0-7.

As to “RNA1{[moe](T)[sp].[moe](G)p.[moe]([m5C])p.[moe]([m5C])p.[moe]([m5C])[sp].d([m5C])[sp].d([m5C])[sp].d([m5C])[sp].d(G)[sp].d([m5C])[sp].d([m5C])[sp].d([m5C])[sp].d(T)[sp].d([m5C])[sp].d([m5C])[sp].[moe](T)p.[moe]([m5C])p.[moe]([m5C])[sp].[moe]([m5C])}$$$$ (last 3' nucleoside missing)”, the 3 h FOB score was determined as 4 score 0-7.

As for “RNA1{[moe](T)[sp].[moe](G)p.[moe]([m5C])p.[moe]([m5C])p.d(A)[sp].d(T)[sp].d(T)[sp].d(T)[sp].d(A)[sp].d(T)[sp].d([m5C])[sp].d(T)[sp].d(G)[sp].d(T)[sp].[moe](G)p.[moe]([m5C])p.[moe](T)p.[moe](T)[sp].[moe](T)}$$$$ (last 3' nucleoside missing)”, the 3 h FOB score stood at 0 score 0-7.

On to “RNA1{[moe](T)[sp].[moe](T)p.[moe](A)p.[moe](T)p.[moe](T)[sp].d(T)[sp].d(T)[sp].d(T)[sp].d([m5C])[sp].d([m5C])[sp].d(T)[sp].d([m5C])[sp].d(A)[sp].[moe](G)p.[moe]([m5C])p.[moe](G)[sp].[moe](A)}$$$$ (last 3' nucleoside missing)”, for which the 3 h FOB score worked out at 0 score 0-7.

“RNA1{[moe](T)[sp].[moe](T)p.[moe](G)p.[moe](A)p.[moe](G)[sp].d(A)[sp].d(T)[sp].d(A)[sp].d(T)[sp].d([m5C])[sp].d(T)[sp].d(T)[sp].d(G)[sp].[moe](T)p.[moe](G)p.[moe](A)[sp].[moe]([m5C])}$$$$ (last 3' nucleoside missing)”: the 3 h FOB score came out at 3 score 0-7.

As for “RNA1{[moe](T)[sp].[moe](T)p.[moe](G)p.[moe](A)p.[moe](G)[sp].d(A)[sp].d(T)[sp].d(A)[sp].d(T)[sp].d([m5C])[sp].d(T)[sp].d(T)[sp].d(G)[sp].d(T)[sp].d(G)[sp].[moe](A)p.[moe]([m5C])p.[moe]([m5C])[sp].[moe](T)}$$$$ (last 3' nucleoside missing)”, the 3 h FOB score amounted to 4 score 0-7.

In turn, “RNA1{[moe](T)[sp].[moe](T)p.[moe](G)p.[moe](A)p.[moe](G)p.d(A)[sp].d(T)[sp].d(A)[sp].d(T)[sp].d([m5C])[sp].d(T)[sp].d(T)[sp].d(G)[sp].d(T)[sp].d(G)[sp].[moe](A)p.[moe]([m5C])p.[moe]([m5C])[sp].[moe](T)}$$$$ (last 3' nucleoside missing)” showed a 3 h FOB score of 3 score 0-7.

In turn, “RNA1{[moe](T)[sp].[moe](T)p.[moe](G)p.[moe](G)p.[moe](T)p.[moe](G)p.d([m5C])[sp].d(T)[sp].d(T)[sp].d(T)[sp].d(T)[sp].d(G)[sp].d([m5C])[sp].d([m5C])[sp].d([m5C])[sp].d([m5C])[sp].[moe]([m5C])p.[moe](T)[sp].[moe](G)}$$$$ (last 3' nucleoside missing)” had a 3 h FOB score of 1 score 0-7.

Take “RNA1{[moe](T)[sp].[moe](T)p.[moe](G)p.[moe](G)p.[moe](T)p.d(G)[sp].d([m5C])[sp].d(T)[sp].d(T)[sp].d(T)[sp].d(T)[sp].d(G)[sp].d([m5C])[sp].d([m5C])[sp].d([m5C])[sp].[moe]([m5C])p.[moe]([m5C])p.[moe](T)[sp].[moe](G)}$$$$ (last 3' nucleoside missing)”: the 3 h FOB score is 0 score 0-7.

Substance “RNA1{[moe](T)[sp].[moe](T)p.[moe](G)p.[moe](G)p.[moe]([m5C])[sp].d(A)[sp].d(G)[sp].d(T)[sp].d(A)[sp].d(T)[sp].d(T)[sp].d(A)[sp].d([m5C])[sp].[moe]([m5C])p.[moe](T)p.[moe]([m5C])[sp].[moe](T)}$$$$ (last 3' nucleoside missing)” came in with a 3 h FOB score of 0 score 0-7.

Take “RNA1{[moe](T)[sp].[moe](T)p.[moe](G)p.[moe](G)p.[moe]([m5C])[sp].d(A)[sp].d(G)[sp].d(T)[sp].d(A)[sp].d(T)[sp].d(T)[sp].d(A)[sp].d([m5C])[sp].d([m5C])[sp].d(T)[sp].[moe]([m5C])p.[moe](T)p.[moe](A)[sp].[moe]([m5C])}$$$$ (last 3' nucleoside missing)”: the 3 h FOB score was determined as 2 score 0-7.

The substance “RNA1{[moe](T)[sp].[moe](T)p.[moe](G)p.[moe](G)p.[moe]([m5C])p.[moe](A)p.d(G)[sp].d(T)[sp].d(A)[sp].d(T)[sp].d(T)[sp].d(A)[sp].d([m5C])[sp].d([m5C])[sp].d(T)[sp].d([m5C])[sp].[moe](T)p.[moe](A)[sp].[moe]([m5C])}$$$$ (last 3' nucleoside missing)” came in with a 3 h FOB score of 0 score 0-7.

“RNA1{[moe](T)[sp].[moe](T)p.[moe](G)p.[moe](G)p.[moe]([m5C])p.d(A)[sp].d(G)[sp].d(T)[sp].d(A)[sp].d(T)[sp].d(T)[sp].d(A)[sp].d([m5C])[sp].d([m5C])[sp].d(T)[sp].[moe]([m5C])p.[moe](T)p.[moe](A)[sp].[moe]([m5C])}$$$$ (last 3' nucleoside missing)” displayed a 3 h FOB score of 0 score 0-7.

With “RNA1{[moe](T)[sp].[moe](T)p.[moe](G)p.[moe](G)p.d(T)[sp].d(G)[sp].d([m5C])[sp].d(T)[sp].d(T)[sp].d(T)[sp].d(T)[sp].d(G)[sp].d([m5C])[sp].d([m5C])[sp].[moe]([m5C])p.[moe]([m5C])p.[moe]([m5C])p.[moe](T)[sp].[moe](G)}$$$$ (last 3' nucleoside missing)”, the 3 h FOB score was found to be 1 score 0-7.
